# Measurements: patent US5437980A, “Phenanthridium dye staining of nucleic acids in living cells” (Molecular Probes, Inc., priority 1993, dated 1995)
# Entries after “also recorded” stand apart in the source; their conditions may differ.
# Tests used:
# [1] = tested on: free-living ciliate and flagellate protozoans; test: Staining of protozoa (Example 7); assay type: cell-based; settings: 1 μL of 10 mM dye in 1 mL culture, 10 min, ambient temperature
# Experimental: 1 μL of 10 mM the 5-DAPP/LIVE dye stock is added to 1 mL of protozoan culture. The medium is incubated for 10 min at ambient temperature. 15 μL of this preparation is mounted with dye between a coverglass and the slide. Using this procedure, the nuclei of most cells of the free-living ciliate and flagellate protozoans are stained under these conditions.
# [2] = tested on: rainbow trout gonad cells (RTG-2); test: Staining followed by fixation (Example 13); assay type: cell-based; settings: 1 μM, 30 min, room temperature
# Experimental: Adherent rainbow trout gonad cells (RTG-2) are grown at 20° C. until about 25% confluent. The cells are labeled by incubation in HBSS- containing 1 μM hexidium at room temperature for 30 min. The cells are subsequently washed free of hexidium with HBSS-, followed by phosphate-buffered saline, pH 7.4 (PBS), and fixed in 2% formaldehyde in PBS for 15 min at room temperature. Cell nuclei and cytoplasmic fluorescence are observed in the fluorescence microscope using fluorescein long-pass or rhodamine filter sets.
# [3] = tested on: 3T3 mouse fibroblast cells; test: Pulse-chase staining of lysosomal compartments in cultured mammalian cells (Example 10); assay type: cell-based
# Experimental: 3T3 mouse fibroblast cells are grown on coverslips in calf serum-supplemented DMEM medium. The coverslips of cells are washed using the HBSS+, then hexidium solutions are prepared to final concentrations of 2 μM and 0.2 μM in HBSS+. The cells are incubated in the dye-containing medium for 2 min at room temperature then they are washed in HBSS +and viewed by epifluorescence microscopy using a long-pass fluorescein or a rhodamine filter set.
# [4] = tested on: Bacillus cereus; test: Relative rate and extent of dye uptake into living Bacillus cereus (Example 2, FIG. 1); assay type: cell-based; settings: 2 μM dye, 23° C.
# Experimental: FIG. 1. Relative Uptake of Dyes into Living Cells. Uptake of ethidium, butidium, hexidium and octidium by Bacillus cereus as described in Example 2.
# Bacillus cereus is grown in nutrient broth to log phase, washed by centrifugation, and resuspended in water to a density of 5×10^6 cfu/mL (as determined in Example 1). One centimeter pathlength acrylic cuvettes containing 3 mL of cell suspension are placed in a fluorescence spectrophotometer equipped with a temperature regulated cuvette holder and magnetic stirrer. The suspensions are brought to 23° C. prior to dye addition. To a cuvette of 3 mL bacteria suspension is added 3 μL of 2 mM dye stock solutions in DMSO to give a final dye concentration of 2 μM to produce the maximum attainable fluorescence/cell at the 600 nm emission wavelength (determined as in Example 1). The peak fluorescence excitation and emission wavelengths are determined by scanning the spectrum of the dye in suspensions of Bacillus cereus incubated for 30 min with the dye. Fluorescence intensity of the suspensions is measured using 488 nm excitation and 600 nm emission wavelengths. Sampling of fluorescence is carried out at 5 or 10 Hz until the fluorescence signal appears to stabilize.
# [5] = tested on: sea urchin sperm; test: Staining of sea urchin sperm (Example 8); assay type: cell-based; settings: 2 μM dye, 5 min, room temperature
# Experimental: Sperm cells are released from sea urchins by injection of KCl and the cells are concentrated by low speed centrifugation and suspended in 1 mL artificial seawater (ASW) at room temperature. Sufficient 10 mM dye stock solution is added to the sperm suspension to obtain a final dye concentration of 2 μM. The sperm are labeled by incubation in the dye solution for 5 min at room temperature. The sperm are washed by centrifugation at 2000 rpm for 1 min and then resuspended in 1 mL ASW before mounting and observation.
# [6] = tested on: mushroom spores; test: Staining of mushroom spores by fluorescence microscopy (Example 4); assay type: cell-based, agaric; settings: 10-20 μM dye, 30 min, room temperature
# Experimental: Spores are rinsed from the gills on the underside of the cap of an agaric using a stream of distilled water. The spores are concentrated by centrifugation for 30 sec at 10,000 rpm in a microcentrifuge then a minimal volume of a 10-20 μM solution of the 5-DAPP/LIVE dye in distilled water is added. The suspension is incubated with the dye for 30 min at room temperature then a 15 μL aliquot of the suspension is mounted on between a coverglass and the slide for viewing in the presence of the dye. The cellular fluorescence is observed on a Zeiss Axioplan fluorescence microscope using fluorescein (long:pass emission) or rhodamine filter sets.
# [7] = tested on: peripheral blood lymphocytes; test: Staining of peripheral blood lymphocytes, fluorometer (Example 11); assay type: cell-based, goat; settings: on the scale of seconds
# Experimental: Peripheral blood lymphocytes (PBL) are isolated from fresh heparinized goat blood and resuspended in buffer consisting of 135 mM NaCl, 5 mM KCl, 20 mM HEPES, 1 mM CaCl2, 1 mM MgCl2, pH 7.4 (HBSS+). The cells are resuspended to 10^6 mL (as determined by direct microscopic count using a standard hemocytometer) in a final volume of 3 mL in the above buffer in a quartz cuvette. 5-DAPP/LIVE dye stocks are prepared to final concentrations of 2 mM in DMSO. 3 μL of the octidium dye stock solution is injected into the cuvette to a final concentration of 2 μM. In a fluorometer, the sample is excited at 520 nm and fluorescence emission is monitored at 600 nm over the time required for the fluorescence signal to become stable. Hexidium, butidium and ethidium bromide are injected into separate samples of PBL to determine the relative rates of uptake for these stains. The volume of dye solution added to the cuvette is corrected by a factor relating the absorbance of the dye to the absorbance of a 2 mM octidium solution.
# [8] = tested on: 3T3 mouse fibroblast cells; test: Staining of nuclei in adherent cultured mammalian cells (Example 9); assay type: cell-based; settings: 2 μM dye
# Experimental: 3T3 mouse fibroblast cells are grown on coverslips in calf serum-supplemented DMEM medium. The coverslips of cells are washed in HBSS+. 5-DAPP/LIVE dye solutions are prepared to a final concentration of 2 μM in DMEM without serum. One group of 3T3 cells is treated with 300 μM chloroquine (group 1). These cells and control cells (group 2) not treated with chloroquine are incubated at 37° C. for 30 min. The two groups of cells are transferred to DMEM plus 5-DAPP/LIVE. The cells are incubated in the dye-containing medium for 30 min at room temperature and are subsequently washed in HBSS+and viewed by epifluorescence microscopy using a long-pass fluorescein or a rhodamine filter set.
# [9] = tested on: Saccharomyces; test: Staining of yeast (Example 5); assay type: cell-based; settings: 10 μM dye, 30 min, 37° C.
# Experimental: Yeast cells are washed by centrifugation and then resuspended in a solution of 2% glucose and 10 mM Na-HEPES, pH 7.4 to a cell density of between 5×10^5 and 2×10^6 cells/mL optical density at 410 nm (previously calibrated with YPD agar plate colony counts). Sufficient 10 mM stock solution of the 5-DAPP/LIVE dye in DMSO is added to effect a final concentration of 10 μM of the dye in the medium. The suspension is incubated for 30 min at 37° C. then 15 μL are placed between a coverglass and the microscope slide. The cellular fluorescence is observed using fluorescein (long-pass emission) or rhodamine filter sets.
smiles,measurement,setting,value
CCCCCC[n+]1c(-c2ccccc2)c2cc(N)ccc2c2ccc(N)cc21 [hexidium],staining of nuclei of protozoans,[1],slightly better than octidium
same,difference between live loaded cells and cells fixed with 2% formaldehyde,[2],essentially no difference
same,labeling after brief pulse-chase loading,"[3]; 0.2 μM, 2 min, room temperature",labeling of punctate structures in the cell cytoplasm; also recorded: green
same,labeling after brief loading,"[3]; 2 μM, 2 min, room temperature","additional organellar staining, which is apparently mitochondrial"
same,effect of chloroquine preincubation on staining,[3]; 300 μM chloroquine,reduces the amount of cytoplasmic staining
same,staining of nuclei,[3]; under both conditions (0.2 and 2 μM),"stained slightly, but only in the nucleolar regions"
same,extent of loading,[4],optimal
same,rate of dye loading,"[4]; 488 nm excitation, 600 nm emission",increases with carbon chain length
same,effect on motility of the sperm or ability to fertilize a sea urchin egg,[5],no apparent effect
same,staining of sperm nuclei,[5],sperm nuclei stain brightly
same,staining of spores (in words),[6],stains all spores brightly; also recorded: stained most effectively
same,distribution of dye into nucleus of lymphocytes,[7],virtually instantaneous
same,"staining distribution, chloroquine-treated cells","[8]; group 1, 300 μM chloroquine","stained throughout, but with a greater relative intensity of staining in the nucleus"
same,"staining distribution, control cells","[8]; group 2, no chloroquine",relatively equal staining in the nucleus and cytoplasm
same,color of nucleus and cytoplasm,"[8]; one half hour, long-pass fluorescein filter (red with rhodamine excitation)",orange
same,staining distribution and intensity,[9],less of a hazy cytoplasmic stain and more distinct nuclei
